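Five concentrations, 48 hours, 96-well plates. GI50 is the concentration that inhibits growth by half.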 Activity calls are given as the source filed them. Cut-off read from the data, not from the text of the source: active = GI50 up to about 1.1 µM and inactive = higher.
Experiments:
Assay in all cases: inhibition of tumour cell growth, NCI panel, 48 h
EKVX = test system: EKVX
SK-MEL-28 = test system: SK-MEL-28
KM12 = test system: KM12
UACC-62 = test system: UACC-62
SNB-75 = test system: SNB-75
OVCAR-8 = test system: OVCAR-8
HCT-15 = test system: HCT-15
SK-OV-3 = test system: SK-OV-3
SK-MEL-5 = test system: SK-MEL-5
SF-539 = test system: SF-539
SF-295 = test system: SF-295
OVCAR-3 = test system: OVCAR-3
PC-3 = test system: PC-3
Hs-578T = test system: Hs-578T
HOP-92 = test system: HOP-92
OVCAR-4 = test system: OVCAR-4
NCI-H23 = test system: NCI-H23
UO-31 = test system: UO-31
HOP-62 = test system: HOP-62
MDA-MB-231 = test system: MDA-MB-231
MDA-N = test system: MDA-N
OVCAR-5 = test system: OVCAR-5
NCI/ADR-RES = test system: NCI/ADR-RES
SK-MEL-2 = test system: SK-MEL-2
LOX IMVI = test system: LOX IMVI
SW-620 = test system: SW-620
HCC 2998 = test system: HCC 2998
MDA-MB-435 = test system: MDA-MB-435
A549 = test system: A549
RXF 393 = test system: RXF 393
SF-268 = test system: SF-268
M14 = test system: M14
TK-10 = test system: TK-10
COLO 205 = test system: COLO 205
K562 = test system: K562
IGROV-1 = test system: IGROV-1
NCI-H226 = test system: NCI-H226
DU-145 = test system: DU-145
UACC-257 = test system: UACC-257
Malme-3M = test system: Malme-3M
ACHN = test system: ACHN
CAKI-1 = test system: CAKI-1
BT-549 = test system: BT-549
A498 = test system: A498
NCI-H522 = test system: NCI-H522
MCF7 = test system: MCF7
CCRF-CEM = test system: CCRF-CEM
HCT-116 = test system: HCT-116
NCI-H460 = test system: NCI-H460
SR = test system: SR
HL-60 = test system: HL-60
MOLT-4 = test system: MOLT-4
786-0 = test system: 786-0
U-251 = test system: U-251
HT-29 = test system: HT-29
SN12C = test system: SN12C
T47D = test system: T47D
SNB-19 = test system: SNB-19

## O=C(O)CN1CCCC(Cc2c[nH]c3ccccc23)C1 (stereo not drawn)
EKVX
  GI50: > 100 µM (inactive)
SK-MEL-28
  GI50: > 100 µM (inactive)
KM12
  GI50: > 100 µM (inactive)
UACC-62
  GI50: > 100 µM (inactive)
SNB-75
  GI50: > 100 µM (inactive)
OVCAR-8
  GI50: > 100 µM (inactive)
HCT-15
  GI50: > 100 µM
SK-OV-3
  GI50: > 100 µM (inactive)
SK-MEL-5
  GI50: > 100 µM (inactive)
SF-539
  GI50: > 100 µM (inactive)
SF-295
  GI50: > 100 µM (inactive)
OVCAR-3
  GI50: > 100 µM (inactive)
PC-3
  GI50: > 100 µM (inactive)
Hs-578T
  GI50: > 100 µM (inactive)
HOP-92
  GI50: > 100 µM (inactive)
OVCAR-4
  GI50: > 100 µM (inactive)
NCI-H23
  GI50: > 100 µM (inactive)
UO-31
  GI50: > 100 µM (inactive)
HOP-62
  GI50: > 100 µM (inactive)
MDA-MB-231
  GI50: > 100 µM (inactive)
MDA-N
  GI50: > 100 µM (inactive)
OVCAR-5
  GI50: > 100 µM (inactive)
NCI/ADR-RES
  GI50: > 100 µM (inactive)
SK-MEL-2
  GI50: > 100 µM (inactive)
LOX IMVI
  GI50: > 100 µM (inactive)
SW-620
  GI50: > 100 µM (inactive)
HCC 2998
  GI50: > 100 µM (inactive)
MDA-MB-435
  GI50: > 100 µM (inactive)
A549
  GI50: > 100 µM (inactive)
RXF 393
  GI50: > 100 µM (inactive)
SF-268
  GI50: > 100 µM (inactive)
M14
  GI50: > 100 µM (inactive)
TK-10
  GI50: > 100 µM (inactive)
COLO 205
  GI50: > 100 µM (inactive)
K562
  GI50: 40.6 µM (inactive)
IGROV-1
  GI50: > 100 µM (inactive)
NCI-H226
  GI50: > 100 µM (inactive)
DU-145
  GI50: > 100 µM (inactive)
UACC-257
  GI50: > 100 µM (inactive)
Malme-3M
  GI50: > 100 µM (inactive)
ACHN
  GI50: > 100 µM (inactive)
CAKI-1
  GI50: > 100 µM (inactive)
BT-549
  GI50: > 100 µM (inactive)

## COC(=O)CNC(=O)CCSc1nnc(COc2ccc(Cl)cc2)n1-c1ccccc1
EKVX
  GI50: 59.6 µM (inactive)
SK-MEL-28
  GI50: 23.7 µM (inactive)
KM12
  GI50: 34 µM (inactive)
UACC-62
  GI50: 20.2 µM (inactive)
A498
  GI50: > 100 µM (inactive)
SNB-75
  GI50: 20.4 µM (inactive)
OVCAR-8
  GI50: 34.9 µM (inactive)
HCT-15
  GI50: 74.6 µM
SK-OV-3
  GI50: > 100 µM (inactive)
NCI-H522
  GI50: 15.4 µM (inactive)
SF-539
  GI50: 91.8 µM (inactive)
SF-295
  GI50: 58.5 µM (inactive)
OVCAR-3
  GI50: 30.9 µM (inactive)
MCF7
  GI50: 71.3 µM (inactive)
PC-3
  GI50: 52 µM (inactive)
HOP-92
  GI50: 33.6 µM (inactive)
OVCAR-4
  GI50: 61.1 µM (inactive)
NCI-H23
  GI50: 45.6 µM (inactive)
CCRF-CEM
  GI50: 55.5 µM (inactive)
UO-31
  GI50: 34.8 µM (inactive)
HOP-62
  GI50: > 100 µM (inactive)
MDA-MB-231
  GI50: 21 µM (inactive)
MDA-N
  GI50: 16.1 µM (inactive)
HCT-116
  GI50: 37.5 µM (inactive)
OVCAR-5
  GI50: 47.8 µM (inactive)
NCI/ADR-RES
  GI50: 42.6 µM (inactive)
SK-MEL-2
  GI50: 23.4 µM (inactive)
LOX IMVI
  GI50: 29.1 µM (inactive)
NCI-H460
  GI50: 31.4 µM (inactive)
SR
  GI50: > 10 µM (inactive)
HL-60
  GI50: 30 µM (inactive)
SW-620
  GI50: 39.5 µM (inactive)
MOLT-4
  GI50: 24.7 µM (inactive)
HCC 2998
  GI50: 42.9 µM (inactive)
786-0
  GI50: 20.2 µM (inactive)
MDA-MB-435
  GI50: 24.1 µM (inactive)
U-251
  GI50: 64.3 µM (inactive)
A549
  GI50: 68.2 µM (inactive)
RXF 393
  GI50: 25.8 µM (inactive)
SF-268
  GI50: 20.3 µM (inactive)
M14
  GI50: 23.4 µM (inactive)
TK-10
  GI50: 17.5 µM (inactive)
COLO 205
  GI50: 32.1 µM (inactive)
K562
  GI50: 30.3 µM (inactive)
IGROV-1
  GI50: 26.2 µM (inactive)
HT-29
  GI50: 27.5 µM (inactive)
NCI-H226
  GI50: 16 µM (inactive)
SN12C
  GI50: 20.3 µM (inactive)
T47D
  GI50: 25.9 µM (inactive)
SNB-19
  GI50: > 100 µM (inactive)
DU-145
  GI50: 20.9 µM (inactive)
UACC-257
  GI50: 19.1 µM (inactive)
Malme-3M
  GI50: 25.8 µM (inactive)
ACHN
  GI50: 34.4 µM (inactive)
CAKI-1
  GI50: 12 µM (inactive)

Source: ChEMBL document CHEMBL1201862, “PubChem BioAssay data set” (2004)
